What was measured:
STAT5 = STAT5 phosphorylation in cultured neural stem cells (Western blot); format: cell-based; settings: data not shown
Description: (§1) To examine the possible mechanisms of PACAP action on neural stem cells, the effects of PACAP on Akt and STAT5 phosphorylation were investigated. Immunoblots were performed with anti-STAT5 (1:1000, Santa Cruz Biotechnology), anti-phospho-STAT5 (1:1000; Cell Signaling Technology), anti-Akt and anti-phospho-Akt (1:1000; Cell Signaling Technology). […] PACAP also stimulated STAT5 phosphorylation, which was previously shown to be important in neural stem cell neurogenesis. The effects of PACAP on Akt and STAT5 phosphorylation may be critical in mediating actions on neural stem cell survival and neurogenesis.

[1] = test system: adult forebrain subventricular zone (SVZ); assay: In vivo proliferation in the adult subventricular zone (BrdU+ cells) after infusion into the lateral ventricle; parameters: species or system CD-1 mice; settings: human PACAP 165 μg/ml by osmotic minipump into right lateral ventricle for 6 days; relative to vehicle infused animals
Description: FIG. 4. PACAP infusion stimulated increased proliferation in the adult subventricular zone (SVZ) in vivo. PACAP was infused into the lateral ventricles for six days with an osmotic minipump, followed by a series of BrdU injections. Brains were processed for immunocytochemistry. PACAP increased proliferation in the adult SVZ. (** p<0.05, n=4). […] To examine the actions of the peptide in vivo, CD-1 mice (6–7 weeks of age) were implanted with osmotic minipumps (Alzet 1007D) filled with either human PACAP (American Peptide Company, 165 μg/ml) or vehicle alone (0.9% saline containing 1 mg/ml mouse serum albumin). The cannulae were placed in the right lateral ventricle. Each animal was infused for 6 days and injected with BrdU every two hours for ten hours and killed 0.5 hours after the last injection. Brains were processed for immunohistochemistry as described previously (Shingo et al., 2001) and BrdU+cells were counted in serial sections of the SVZ.

[2] = test system: E14 ganglionic eminence neural stem cells; assay: Primary neurosphere number from dissociated E14 ganglionic eminences (neural stem cell survival); format: cell-based, mouse
Description: FIG. 1. Pituitary adenylate cyclase-activating polypeptide (PACAP) enhanced neural stem cell survival in vitro. Embryonic day 14 ganglionic eminences (E14 GE) were dissociated and plated at 150 cells/ml in the indicated growth factor conditions. The number of neurospheres was counted after 10 days. Data are expressed relative to the number obtained with epidermal growth factor (EGF) alone (100%). PACAP increased the number of neurospheres obtained with either EGF or fibroblast growth factor (FGF)+heparan sulfate (HS). […] (* p<0.05, n=3).
Cell Culture: Primary embryonic neural stem cells were isolated from E14 ganglionic eminence as previously described (Reynolds and Weiss, 1992). Neurospheres were grown in the presence of EGF (20 ng/ml) or FGF-2 (20 ng/ml)+heparan sulfate (2 μg/ml) growth medium. Passaged neural stem cells were grown at a clonal density (150 cells/ml).
E14 GE were dissociated and plated at 150 cells/ml in EGF, EGF+PACAP, FGF+HS, or FGF+HS+PACAP. The number of neurospheres were counted after 10 days.

primary E14 neurospheres [3] = assay: Secondary neurosphere number from dissociated primary neurospheres (self-renewal); format: cell-based, mouse; settings: primary neurospheres grown with PACAP, replated in EGF or FGF+HS; normalized to growth without PACAP
Description: FIG. 2. PACAP increased neural stem cell self-renewal in vitro. Primary E14 neurospheres were grown in the indicated conditions, dissociated, and replated in the presence of either EGF or FGF+HS. Neurospheres were counted and data were normalized to either EGF or FGF+HS alone. PACAP increased the number of secondary neurospheres obtained with either EGF or FGF+HS. (* p<0.05, n=3).
Single Cell Dissociation Assay: Single neurospheres ([…]) were dissociated mechanically and then plated in a 96 well plate and incubated for 10 days in vitro in the presence of growth factors.
Primary E14 neurospheres were grown in the indicated conditions in FIG. 2, then dissociated and replated in the presence of either EGF or FGF+HS and the number of secondary neurospheres was counted. Data were normalized to the numbers of secondary neurospheres generated from primary neurospheres grown in the absence of PACAP.

Akt = Akt phosphorylation in cultured neural stem cells (Western blot); format: cell-based; settings: within 1 to 2 hours, data not shown
Description: as §1

[4] = Banks, 1993; cited from earlier work
[5] = test system: embryonic rat cortical precursors; settings: Lu and DiCicco-Bloom, 1997; cited from earlier work
primary E14 neurospheres [6] = assay: In vitro neurogenesis: count of β-tubulin immunopositive neurons from neurospheres; format: cell-based, mouse
Description: FIG. 3. PACAP enhanced in vitro neurogenesis by neural stem cells. Primary E14 neurospheres were grown in the indicated conditions for seven days and then processed for immunocytochemistry to count the number of B-tubulin immunopositive neurons. Data were normalized to either EGF or FGF+HS alone (100%). PACAP increased the number of neurons in all conditions. (* p<0.01, n=3).
Differentiation of Neurospheres: Neurospheres were plated onto poly-L-ornithine coated coverslips in serum-free medium and subjected to immunocytochemistry after 5 days in vitro. The number of β-III tubulin-positive cells were counted.
Primary E14 neurospheres were grown in either EGF or FGF media in the presence or absence of PACAP for seven days, differentiated for five days in vitro in basal media, and then processed for immunocytochemistry to determine the number of β-tubulin immunopositive neurons. Data were normalized to those obtained with either EGF or FGF+HS alone (100%).

PACAP: polypeptide hormone that activates adenylate cyclase; native mammalian form is 38 or 27 amino acids; human PACAP from American Peptide Company used in vivo
STAT5 phosphorylation (STAT5): stimulated | number of BrdU incorporating cells in the SVZ [1]: significantly increased | number of primary neurospheres generated in response to EGF ([2]; EGF+PACAP vs EGF, 150 cells/ml, counted after 10 days, lesser extent than with FGF-2): also increased | number of primary neurospheres generated in response to FGF-2 ([2]; FGF+HS+PACAP vs FGF+HS, 150 cells/ml, counted after 10 days, PACAP added at beginning of culture): significantly increased | neurosphere number with delayed addition of PACAP ([2]; PACAP addition delayed until 5 days in vitro): did not increase | number of secondary neurospheres generated by single primary neurospheres (primary E14 neurospheres [3]): significantly increased | phosphorylation of Akt (Akt): rapid increase | crossing of the blood-brain-barrier [4]: known to cross the blood-brain-barrier | mitosis [5]: can decrease mitosis | number of β-tubulin immunopositive neurons generated (primary E14 neurospheres [6]; EGF or FGF media with PACAP for seven days, differentiated five days in vitro, normalized to EGF or FGF+HS alone (100%)): significantly increased | number of neurons generated with delayed PACAP addition (primary E14 neurospheres [6]; PACAP addition delayed until after five days in vitro (PACAP at 5 DIV)): an increase was observed
